Measurements from ChEMBL document CHEMBL3639017, “Thiazolyl mGluR5 antagonists and methods for their use” (2013).
pKi: −log10 of the molar value.

Biological target: Metabotropic glutamate receptor 5 (Rattus norvegicus, UniProt P31424)
Experiment: Binding Assay: Binding assays were performed as described in Schaffhauser H, Richards J G, Cartmell J, Chaboz S, Kemp J A, Klingelschmidt A, Messer J, Stadler H, Woltering T and Mutel V (1998) In vitro binding characteristics of a new selective group II metabotropic glutamate receptor radioligand, [3H]LY354740, in rat brain. Mol Pharmacol 53:228-233) at room temperature with slight modifications.
Type: tissue-based

Metabotropic glutamate receptor 5, sequence (P31424 whole entry): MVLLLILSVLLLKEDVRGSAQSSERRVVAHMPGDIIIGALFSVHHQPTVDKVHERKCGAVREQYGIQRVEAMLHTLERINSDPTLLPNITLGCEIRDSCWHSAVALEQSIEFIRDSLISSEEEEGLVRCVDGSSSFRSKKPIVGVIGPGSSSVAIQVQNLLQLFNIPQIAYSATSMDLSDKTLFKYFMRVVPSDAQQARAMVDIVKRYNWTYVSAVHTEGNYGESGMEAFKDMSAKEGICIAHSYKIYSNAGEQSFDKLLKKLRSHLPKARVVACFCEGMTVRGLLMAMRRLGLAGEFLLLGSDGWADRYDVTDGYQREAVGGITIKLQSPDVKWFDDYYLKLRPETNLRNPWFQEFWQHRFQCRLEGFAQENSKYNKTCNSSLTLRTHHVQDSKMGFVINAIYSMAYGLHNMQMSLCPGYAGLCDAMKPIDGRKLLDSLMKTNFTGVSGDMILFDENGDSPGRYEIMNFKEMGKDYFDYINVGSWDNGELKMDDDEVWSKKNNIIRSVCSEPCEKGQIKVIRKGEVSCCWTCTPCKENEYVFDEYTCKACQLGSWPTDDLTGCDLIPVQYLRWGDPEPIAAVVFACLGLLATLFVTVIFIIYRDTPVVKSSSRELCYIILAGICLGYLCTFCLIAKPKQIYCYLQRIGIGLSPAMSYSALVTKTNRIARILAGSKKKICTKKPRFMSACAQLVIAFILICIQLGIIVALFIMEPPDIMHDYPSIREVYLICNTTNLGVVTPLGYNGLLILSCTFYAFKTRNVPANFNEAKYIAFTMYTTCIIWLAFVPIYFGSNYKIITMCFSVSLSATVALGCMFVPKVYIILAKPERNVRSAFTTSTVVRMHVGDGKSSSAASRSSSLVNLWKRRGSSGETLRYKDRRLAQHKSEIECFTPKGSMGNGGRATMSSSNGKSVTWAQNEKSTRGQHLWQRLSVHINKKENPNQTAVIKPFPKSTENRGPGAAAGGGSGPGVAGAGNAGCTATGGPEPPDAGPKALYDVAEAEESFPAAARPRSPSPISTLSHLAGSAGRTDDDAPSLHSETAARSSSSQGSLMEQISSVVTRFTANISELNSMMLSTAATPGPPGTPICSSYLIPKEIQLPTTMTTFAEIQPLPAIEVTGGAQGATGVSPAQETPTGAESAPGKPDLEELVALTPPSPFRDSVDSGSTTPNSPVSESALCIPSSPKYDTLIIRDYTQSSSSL

pKi: 8.59
SMILES: Cc1nc(C#Cc2ccc(-c3ccccc3C#N)nc2)cs1
